This note sets out measurements from patent publication US11267800B2, “Cyclohexyl acid triazole azines as LPA antagonists” (BRISTOL-MYERS SQUIBB COMPANY, priority 2017, dated 2022).

Structures can show the parent of a compound that is named as a salt.

The target of the experiment is T1, human LPA1 (Homo sapiens, UniProt Q92633).
T1 construct: expressed in transfected cells; host or cells: Chinese hamster ovary (CHO) cells
T1 sequence (Q92633 whole entry): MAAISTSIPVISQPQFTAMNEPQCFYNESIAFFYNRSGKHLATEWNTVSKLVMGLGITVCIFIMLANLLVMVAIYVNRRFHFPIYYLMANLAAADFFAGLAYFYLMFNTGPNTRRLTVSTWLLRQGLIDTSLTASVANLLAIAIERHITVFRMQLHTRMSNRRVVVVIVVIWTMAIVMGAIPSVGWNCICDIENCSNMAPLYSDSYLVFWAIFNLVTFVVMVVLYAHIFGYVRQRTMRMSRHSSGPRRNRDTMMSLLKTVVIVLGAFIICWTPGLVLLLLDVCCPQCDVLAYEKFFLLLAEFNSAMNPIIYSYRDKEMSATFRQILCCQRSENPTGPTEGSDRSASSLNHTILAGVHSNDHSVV
In words: LPA1 functional antagonist assay (calcium flux). The format is cell-based. As to conditions: CHO cells overexpressing human LPA1; inhibition of calcium flux induced by 10 nM LPA; read-out: hLPA1 IC50. In outline: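 IC50 values come from 4-parameter logistic fits and mark 50% block of the calcium flux evoked by 10 nM LPA. Human LPA1-overexpressing CHO cells were calcium-dye loaded at 37 °C, then given test compound (0.08 nM–5 μM, 0.5% DMSO, HEPES-buffered HBSS with 0.1% fatty-acid-free BSA) for 20 min at room temperature before agonist.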
(Calcium assays in cells follow changes in intracellular calcium, usually with a dye or a luminescent sensor.)
As a reminder, the IC50 is the concentration that inhibits the measured activity by half. With `Cn1nnc(-c2ccc(O[C@H]3CCC[C@H](C(=O)O)C3)cn2)c1CNc1nccc(-c2ccccc2)n1` [Example 26], the IC50 came to 8 nM.
For `CCOc1cccc(Nc2c(-c3ccc(O[C@H]4CCC[C@H](C(=O)O)C4)c(C)n3)nnn2C)n1` [Example 240, (1S,3S)-3-((6-(5-((6-ethoxypyridin-2-yl)amino)-1-methyl-1H-1,2,3-triazol-4-yl)-2-methylpyridin-3-yl)oxy) cyclohexane-1-carboxylic acid] the value was 57 nM; for `Cc1nc(-c2nnn(C)c2CNc2nccc(C3CC(F)(F)C3)n2)ccc1O[C@H]1CCC[C@H](C(=O)O)C1` [Example 160], 17 nM; for `Cc1nc(-c2nnn(C)c2COc2nccc(N3CCCC3)n2)ccc1O[C@H]1CCC[C@H](C(=O)O)C1` [Example 338], 21 nM.
As for `CCCc1cccc(NCc2c(-c3ccc(O[C@H]4CCC[C@H](C(=O)O)C4)c(C)n3)nnn2C)n1` [Example 398], the IC50 amounted to 27 nM.
As for `Cn1nnc(-c2ccc(O[C@H]3CCC[C@H](C(=O)O)C3)cn2)c1CNc1nccc(OC2CC2)n1` [Example 139], the figure is 42 nM; as for `Cc1nc(-c2nnn(C)c2CNc2nnc(Cl)cc2C2CC2)ccc1O[C@H]1CCC[C@H](C(=O)O)C1` [Example 216, (1S,3S)-3-((6-(5-(((6-Chloro-4-cyclopropylpyridazin-3-yl)amino)methyl)-1-methyl-1H-1,2,3-triazol-4-yl)-2-methylpyridin-3-yl)oxy) cyclohexane-1-carboxylic acid], 379 nM; as for `CCCc1cnnc(NCc2c(-c3ccc(O[C@H]4CCC[C@H](C(=O)O)C4)c(C)n3)nnn2C)c1` [Example 212, (1S,3S)-3-((2-Methyl-6-(1-methyl-5-(((5-propylpyridazin-3-yl)amino)methyl)-1H-1,2,3-triazol-4-yl)pyridin-3-yl)oxy)cyclohexane-1-carboxylic acid], 93 nM.
Turning to `Cc1nc(-c2nnn(C)c2CNc2ncnc(OC3CC3)n2)ccc1O[C@H]1CCC[C@H](C(=O)O)C1` [Example 210, (1S,3S)-3-((6-(5-(((4-cyclopropoxy-1,3,5-triazin-2-yl)amino)methyl)-1-methyl-1H-1,2,3-triazol-4-yl)-2-methylpyridin-3-yl)oxy)cyclohexane-1-carboxylic acid], the IC50 was determined as 102 nM.
For `CSc1cc(OCc2c(-c3ccc(O[C@H]4CCC[C@H](C(=O)O)C4)c(C)n3)nnn2C)ncn1` [Example 363] the value was 22 nM.
As for `Cc1nc(-c2nnn(C)c2COc2cncc(C(F)(F)F)n2)ccc1O[C@H]1CCC[C@H](C(=O)O)C1` [Example 339], the figure is 99 nM.
As for `COC(C)(C)c1ccnc(NCc2c(-c3ccc(O[C@H]4CCC[C@H](C(=O)O)C4)c(C)n3)nnn2C)n1` [Example 122], the figure is 1130 nM.
`Cn1nnc(-c2ccc(O[C@H]3CCC[C@H](C(=O)O)C3)cn2)c1CNc1nccc(OCC2(C)CC2)n1` [Example 336]: the IC50 amounted to 28 nM.
As for `CCOc1ccnc(NCc2c(-c3ccc(O[C@H]4CCC[C@H](C(=O)O)C4)c(C)n3)nnn2C)n1` [Example 13], the figure is 19 nM.
For `CCCCc1cnnc(NCc2c(-c3ccc(O[C@H]4CCC[C@H](C(=O)O)C4)c(C)n3)nnn2C)n1` [Example 193, (1S,3S)-3-((6-(5-(((5-Butyl-1,2,4-triazin-3-yl)amino)methyl)-1-methyl-1H-1,2,3-triazol-4-yl)-2-methylpyridin-3-yl)oxy)cyclohexane-1-carboxylic acid, bis TFA] the value was 6.8 nM.
For `CCOc1cc(OCc2c(-c3ccc(O[C@H]4CCC[C@H](C(=O)O)C4)c(C)n3)nnn2C)ncn1` [Example 273] the value was 13 nM; for `Cc1nc(-c2nnn(C)c2CNc2ncc(F)c(NC3CCC3)n2)ccc1O[C@H]1CCC[C@H](C(=O)O)C1` [Example 53], 58 nM; for `Cc1nc(-c2nnn(C)c2COc2cc(C(C)C)ncn2)ccc1O[C@H]1CCC[C@H](C(=O)O)C1` [Example 277], 24 nM.
With `Cc1nc(-c2nnn(C)c2CNc2ncnc(C(C)C)n2)ccc1O[C@H]1CCC[C@H](C(=O)O)C1` [Example 181], the IC50 came out at 106 nM.
For `Cc1nc(-c2nnn(C)c2CNc2nncc(-c3ccccc3)n2)ccc1O[C@H]1CCC[C@H](C(=O)O)C1` [Example 192, (1S,3S)-3-((2-Methyl-6-(1-methyl-5-(((5-phenyl-1,2,4-triazin-3-yl)amino)methyl)-1H-1,2,3-triazol-4-yl)pyridin-3-yl)oxy)cyclohexane-1-carboxylic acid, bis TFA Salt] the value was 53 nM; for `Cn1nnc(-c2ccc(O[C@H]3CCC[C@H](C(=O)O)C3)cn2)c1CNc1nccc(C(C)(C)C)n1` [Example 38], 36 nM.
In the case of `CCCNc1ccnc(NCc2c(-c3ccc(O[C@H]4CCC[C@H](C(=O)O)C4)c(C)n3)nnn2C)n1` [Example 51], the IC50 is 233 nM.
For `Cc1nc(-c2nnn(C)c2CNc2nccc(Oc3ccccn3)n2)ccc1O[C@H]1CCC[C@H](C(=O)O)C1` [Example 113] the value was 191 nM; for `Cc1nc(-c2nnn(C)c2CNc2nccc(OC3CC3)n2)ccc1O[C@H]1CCC[C@H](C(=O)O)C1` [Example 117], 32 nM.
Regarding `CCCN(C)c1ccnc(NCc2c(-c3ccc(O[C@H]4CCC[C@H](C(=O)O)C4)c(C)n3)nnn2C)n1` [Example 46], the IC50 was 304 nM.
For `CCc1cc(CC)nc(NCc2c(-c3ccc(O[C@H]4CCC[C@H](C(=O)O)C4)c(C)n3)nnn2C)n1` [Example 129], the IC50 was found to be 102 nM.
For `Cc1nc(-c2nnn(C)c2CNc2nccc(-c3ccccc3)n2)ccc1O[C@H]1CCC[C@H](C(=O)O)C1` [Example 39] the value was 41 nM; for `Cc1nc(-c2nnn(C)c2CNc2nccc(-n3cccn3)n2)ccc1O[C@H]1CCC[C@H](C(=O)O)C1` [Example 326], 99 nM.
As for `Cc1nc(-c2nnn(C)c2CNc2nccc(C3CCCC3)n2)ccc1O[C@H]1CCC[C@H](C(=O)O)C1` [Example 66], the figure is 12 nM; as for `CCc1cc(OCc2c(-c3ccc(O[C@H]4CCC[C@H](c5nnn[nH]5)C4)c(C)n3)nnn2C)ncn1` [Example 257, 4-((4-(5-(((1S,3S)-3-(1H-tetrazol-5-yl)cyclohexyl)oxy)-6-methylpyridin-2-yl)-1-methyl-1H-1,2,3-triazol-5-yl)methoxy)-6-ethylpyrimidine], 69 nM.
For the compound `Cc1nc(-c2nnn(C)c2CNc2ncnc(CC(C)C)n2)ccc1O[C@H]1CCC[C@H](C(=O)O)C1` [Example 200, (1S,3S)-3-((6-(5-(((4-Isobutyl-1,3,5-triazin-2-yl)amino)methyl)-1-methyl-1H-1,2,3-triazol-4-yl)-2-methyl-pyridin-3-yl)oxy)cyclohexane-1-carboxylic acid], the IC50 was 77 nM.
Regarding `COc1cc(C(C)(C)C)nc(NCc2c(-c3ccc(O[C@H]4CCC[C@H](C(=O)O)C4)c(C)n3)nnn2C)n1` [Example 169], the IC50 came to 86 nM.
As for `Cc1nc(-c2nnn(C)c2CNc2ncnc(Oc3ccccc3)n2)ccc1O[C@H]1CCC[C@H](C(=O)O)C1` [Example 80], the figure is 135 nM; as for `CCOc1cnnc(OCc2c(-c3ccc(O[C@H]4CCC[C@H](C(=O)O)C4)c(C)n3)nnn2C)c1` [Example 284], 147 nM.
As for `COc1cnc(NCc2c(-c3ccc(O[C@H]4CCC[C@H](C(=O)O)C4)c(C)n3)nnn2C)nc1C(C)(C)C` [Example 120], the figure is 344 nM; as for `Cc1nc(-c2nnn(C)c2CNc2ncnc(C3CCCCC3)n2)ccc1O[C@H]1CCC[C@H](C(=O)O)C1` [Example 185], 288 nM; as for `Cc1nc(-c2nnn(C)c2COc2ccnc(C3CC3)n2)ccc1O[C@H]1CCC[C@H](C(=O)O)C1` [Example 282], 37 nM.
In the case of `COc1cncc(OCc2c(-c3ccc(O[C@H]4CCC[C@H](C(=O)O)C4)c(C)n3)nnn2C)c1` [Example 309], the IC50 worked out at 3240 nM.
Regarding `Cn1nnc(-c2ccc(O[C@H]3CCC[C@H](C(=O)O)C3)cn2)c1CNc1nccc(Oc2ccccc2)n1` [Example 31], the IC50 came to 178 nM.
As for `Cc1nc(-c2nnn(C)c2CNc2nccc(N3CCCC3)n2)ccc1O[C@H]1CCC[C@H](C(=O)O)C1` [Example 17], the figure is 206 nM; as for `CCCCc1ncnc(N(C)Cc2c(-c3ccc(O[C@H]4CCC[C@H](C(=O)O)C4)c(C)n3)nnn2C)n1` [Example 381], 38 nM; as for `CCCc1ccnc(Nc2c(-c3ccc(O[C@H]4CCC[C@H](C(=O)O)C4)c(C)n3)nnn2C)n1` [Example 235, (1S,3S)-3-((2-methyl-6-(1-methyl-5-((4-propylpyrimidin-2-yl)amino)-1H-1,2,3-triazol-4-yl)pyridin-3-yl)oxy) cyclohexane-1-carboxylic acid], 23 nM.
As for `Cc1cnc(NCc2c(-c3ccc(O[C@H]4CCC[C@H](C(=O)O)C4)cn3)nnn2C)nc1-c1ccccn1` [Example 30], the figure is 300 nM; as for `Cc1nc(-c2nnn(C)c2COc2cc(N3CCOCC3)ncn2)ccc1O[C@H]1CCC[C@H](C(=O)O)C1` [Example 356], 447 nM; as for `CCCc1cccc(Nc2c(-c3ccc(O[C@H]4CCC[C@H](C(=O)O)C4)c(C)n3)nnn2C)n1` [Example 230, (1S,3S)-3-((2-methyl-6-(1-methyl-5-((6-propylpyridin-2-yl)amino)-1H-1,2,3-triazol-4-yl)pyridin-3-yl)oxy) cyclohexane-1-carboxylic acid], 11 nM.
For `CCC(C)(C)c1ccnc(NCc2c(-c3ccc(O[C@H]4CCC[C@H](C(=O)O)C4)c(C)n3)nnn2C)n1` [Example 149], the IC50 was determined as 34 nM.
As for `Cc1nc(-c2nnn(C)c2CNc2nccc(OC(C)C(F)(F)F)n2)ccc1O[C@H]1CCC[C@H](C(=O)O)C1` (stereo partly drawn) [Example 99], the figure is 244 nM; as for `CCOc1ccnc(NCc2c(-c3ccc(O[C@H]4CCC[C@H](C(=O)O)C4)c(CC)n3)nnn2C)n1` [Example 393], 15 nM.
